From ChEMBL document CHEMBL3885881, “DrugMatrix”

Species on record: Rattus norvegicus
Experiment: DrugMatrix - Regimen: Daily Repeat
Type: toxicity, organism-based, Sprague-Dawley
Design: regimen Daily Repeat, gender Male, age 6-8 weeks
Settings: in vivo, po, route oral GAVAGE, vehicle .5 % CMC; for ABSOLUTE BASOPHIL / ABSOLUTE EOSINOPHIL / ABSOLUTE LYMPHOCYTE / ABSOLUTE MONOCYTE / ABSOLUTE SEGMENTED NEUTROPHIL / BASOPHIL / EOSINOPHIL / ERYTHROCYTE COUNT / HEMATOCRIT / HEMOGLOBIN / LEUKOCYTE COUNT / LYMPHOCYTE / MEAN CORPUSCULAR HEMOGLOBIN / MEAN CORPUSCULAR HEMOGLOBIN CONCENTRATION / MEAN CORPUSCULAR VOLUME / MONOCYTE / NEUTROPHIL / NUCLEATED RED BLOOD CELLS / PLATELET COUNT: tissue Blood; for ALANINE AMINOTRANSFERASE / ALBUMIN / ALKALINE PHOSPHATASE / ASPARTATE AMINOTRANSFERASE / BLOOD UREA NITROGEN / CARBON DIOXIDE / CHLORIDE / CHOLESTEROL / CREATINE PHOSPHOKINASE / CREATININE / GLUCOSE / LACTATE DEHYDROGENASE / LIPASE / PHOSPHORUS / POTASSIUM / SODIUM / TOTAL BILIRUBIN / TOTAL PROTEIN / URIC ACID: tissue Plasma
[1] = 0 mg/kg, 72 h, dose level Control, time 3 day
[2] = 0 mg/kg, 120 h, dose level Control, time 5 day
[3] = 15 mg/kg, 72 h, dose level Low, time 3 day

What does the source list for COC(=O)c1ccc(O)cc1 [METHYLPARABEN]?
ABSOLUTE BASOPHIL [1]: 0 CELLS/uL; ABSOLUTE EOSINOPHIL [1]: 0 CELLS/uL; ABSOLUTE LYMPHOCYTE [1]: 10913.67 CELLS/uL; ABSOLUTE MONOCYTE [1]: 85.33 CELLS/uL; ABSOLUTE SEGMENTED NEUTROPHIL [1]: 1401 CELLS/uL; BASOPHIL [1]: 0%; EOSINOPHIL [1]: 0%; ERYTHROCYTE COUNT [1]: 5.57 x10E6/uL; HEMATOCRIT [1]: 35.58%; HEMOGLOBIN [1]: 13.8 G/DL; LEUKOCYTE COUNT [1]: 12.4 x10E3/uL; LYMPHOCYTE [1]: 88%; MEAN CORPUSCULAR HEMOGLOBIN [1]: 24.78 pg; MEAN CORPUSCULAR HEMOGLOBIN CONCENTRATION [1]: 38.82 G/DL; MEAN CORPUSCULAR VOLUME [1]: 63.88 fL; MONOCYTE [1]: 0.67%; NEUTROPHIL [1]: 11.33%; NUCLEATED RED BLOOD CELLS [1]: 0 /100WBC; PLATELET COUNT [1]: 1162.33 x10E3/uL; ALANINE AMINOTRANSFERASE [1]: 53 u/L; ALBUMIN [1]: 4.17 G/DL; ALKALINE PHOSPHATASE [1]: 374.5 u/L; ASPARTATE AMINOTRANSFERASE [1]: 89.5 u/L; BLOOD UREA NITROGEN [1]: 16.33 mg/dL; CARBON DIOXIDE [1]: 29.17 mmol/L; CHLORIDE [1]: 97.67 MEQ/L; CHOLESTEROL [1]: 77 mg/dL; CREATINE PHOSPHOKINASE [1]: 464.83 u/L; CREATININE [1]: 0.14 mg/dL; GLUCOSE [1]: 164 mg/dL; LACTATE DEHYDROGENASE [1]: 155.5 u/L; LIPASE [1]: 9.17 u/L; PHOSPHORUS [1]: 12.4 mg/dL; POTASSIUM [1]: 6.91 MEQ/L; SODIUM [1]: 141.47 MEQ/L; TOTAL BILIRUBIN [1]: 0.2 mg/dL; TOTAL PROTEIN [1]: 5.95 G/DL; URIC ACID [1]: 1.72 mg/dL; ABSOLUTE BASOPHIL [2]: 0 CELLS/uL; ABSOLUTE EOSINOPHIL [2]: 20.5 CELLS/uL; ABSOLUTE LYMPHOCYTE [2]: 13871.67 CELLS/uL; ABSOLUTE MONOCYTE [2]: 60.5 CELLS/uL; ABSOLUTE SEGMENTED NEUTROPHIL [2]: 980.67 CELLS/uL; BASOPHIL [2]: 0%; EOSINOPHIL [2]: 0.17%; ERYTHROCYTE COUNT [2]: 5.65 x10E6/uL; HEMATOCRIT [2]: 35.63%; HEMOGLOBIN [2]: 14.08 G/DL; LEUKOCYTE COUNT [2]: 14.93 x10E3/uL; LYMPHOCYTE [2]: 92.83%; MEAN CORPUSCULAR HEMOGLOBIN [2]: 24.97 pg; MEAN CORPUSCULAR HEMOGLOBIN CONCENTRATION [2]: 39.55 G/DL; MEAN CORPUSCULAR VOLUME [2]: 63.13 fL; MONOCYTE [2]: 0.33%; NEUTROPHIL [2]: 6.67%; NUCLEATED RED BLOOD CELLS [2]: 0 /100WBC; PLATELET COUNT [2]: 1248.17 x10E3/uL; ALANINE AMINOTRANSFERASE [2]: 45.17 u/L; ALBUMIN [2]: 4.27 G/DL; ALKALINE PHOSPHATASE [2]: 405.67 u/L; ASPARTATE AMINOTRANSFERASE [2]: 74.17 u/L; BLOOD UREA NITROGEN [2]: 15.5 mg/dL; CARBON DIOXIDE [2]: 30.17 mmol/L; CHLORIDE [2]: 100.67 MEQ/L; CHOLESTEROL [2]: 57 mg/dL; CREATINE PHOSPHOKINASE [2]: 239.5 u/L; CREATININE [2]: 0.17 mg/dL; GLUCOSE [2]: 165.67 mg/dL; LACTATE DEHYDROGENASE [2]: 90.5 u/L; LIPASE [2]: 8.83 u/L; PHOSPHORUS [2]: 12.32 mg/dL; POTASSIUM [2]: 7.03 MEQ/L; SODIUM [2]: 142.65 MEQ/L; TOTAL BILIRUBIN [2]: 0.18 mg/dL; TOTAL PROTEIN [2]: 6.03 G/DL; URIC ACID [2]: 1.98 mg/dL; ABSOLUTE BASOPHIL [3]: 0 CELLS/uL; ABSOLUTE EOSINOPHIL [3]: 0 CELLS/uL; ABSOLUTE LYMPHOCYTE [3]: 13173.33 CELLS/uL; ABSOLUTE MONOCYTE [3]: 95.67 CELLS/uL; ABSOLUTE SEGMENTED NEUTROPHIL [3]: 1364.33 CELLS/uL; BASOPHIL [3]: 0%; EOSINOPHIL [3]: 0%; ERYTHROCYTE COUNT [3]: 5.6 x10E6/uL; HEMATOCRIT [3]: 37.1%; HEMOGLOBIN [3]: 14.57 G/DL; LEUKOCYTE COUNT [3]: 14.63 x10E3/uL; LYMPHOCYTE [3]: 90%; MEAN CORPUSCULAR HEMOGLOBIN [3]: 26.03 pg; MEAN CORPUSCULAR HEMOGLOBIN CONCENTRATION [3]: 39.27 G/DL; MEAN CORPUSCULAR VOLUME [3]: 66.23 fL; MONOCYTE [3]: 0.67%; NEUTROPHIL [3]: 9.33%; NUCLEATED RED BLOOD CELLS [3]: 0.67 /100WBC; PLATELET COUNT [3]: 1171 x10E3/uL; ALANINE AMINOTRANSFERASE [3]: 56.67 u/L; ALBUMIN [3]: 4.2 G/DL; ALKALINE PHOSPHATASE [3]: 324 u/L; ASPARTATE AMINOTRANSFERASE [3]: 86 u/L; BLOOD UREA NITROGEN [3]: 16.33 mg/dL; CARBON DIOXIDE [3]: 26.67 mmol/L; CHLORIDE [3]: 98.67 MEQ/L; CHOLESTEROL [3]: 78 mg/dL; CREATINE PHOSPHOKINASE [3]: 194 u/L; CREATININE [3]: 0.14 mg/dL; GLUCOSE [3]: 149.67 mg/dL; LACTATE DEHYDROGENASE [3]: 120 u/L; LIPASE [3]: 9.33 u/L; PHOSPHORUS [3]: 14.03 mg/dL; POTASSIUM [3]: 6.83 MEQ/L; SODIUM [3]: 143.63 MEQ/L; TOTAL BILIRUBIN [3]: 0.23 mg/dL; TOTAL PROTEIN [3]: 5.9 G/DL; URIC ACID [3]: 1.83 mg/dL
